Residues, ends and D or L forms follow the SMILES beside them. No end group written: not given here. *: point of attachment. Cbz = O=C(OCc1ccccc1)*
Columns and labels:
[1] = system: cortical neuronal cultures; experiment: DNA fragmentation assays (TUNEL, DNA gel electrophoresis); format: cell-based, mouse; conditions: 20 h post-insult; 200 μM MnTBAP or 100 μM L-NAME
From the text: DNA fragmentation was examined using the terminal deoxynucleotidyl transferase-mediated end nick labeling (TUNEL) method (Gavrieli et al., 1992; Didenko and Hornsby, 1996; Didenko et al., 1998) and by DNA agarose gel electrophoresis (Hill et al., 2000).
TUNEL Assay: Nuclear DNA strand breaks were detected by enzymatically labeling free 3′-OH termini with modified nucleotides provided in the Apoptag kit (Intergen) using the manufacturer's instructions. Visualization of TUNEL-stained nuclei was achieved using an anti-digoxigenin antibody conjugated to a fluorescein or peroxidase reporter molecule (ApopTag Peroxidase Kits S7110 and S7100, respectively, Intergen). In fluorescence experiments, nuclei were counterstained using 5 ng/ml Hoechst 33258 (1:5000, Transduction Labs), and visualized using 465-495 nm excitation and 515-555 nm emission for fluorescein and 340 nm excitation and 510-40 nm emission for Hoechst. The number of TUNEL positive cells was expressed as a fraction of the total cell number in the field. In each culture, 4-8 random fields were quantified. Approximately 100-200 cells were counted per culture, and at least 3 experiments were performed for each set of counts.
DNA Gel Electrophoresis: DNA laddering was evaluated as described elsewhere (Hill et al., 2000). In brief, all tissue was collected from each culture well and pelleted by centrifugation (1000 rpm; 1 min). The cells were digested for 2 h at 56° C. in buffer containing (in mM) 10 Tris pH 8.0, 2 EDTA pH8, 400 NaCl, 0.5% SDS, 1 mg/ml proteinase K. Digest solution was subjected to phenol/chloroform extraction and total DNA was precipitated from the aqueous layer with an equal volume of 100% ethanol. The DNA pellet was dried, dissolved in 50 μl ddH20 and kept overnight at 4° C. 10 μg DNA was prepared on a 2% agarose gel. Gels were stained with ethidium bromide and photographed.

[2] = system: cortical neuronal cultures; experiment: Sublethal stretch injury with or without NMDA, cell death in cortical cultures; format: cell-based
Protocol: […]. In brief, cerebral cortices from 10 to 12 embryos were incubated for 10 min in 0.05% trypsin-EDTA, dissociated by trituration, and plated on flexible membranes coated with poly-L-ornithine in 6 well plates (Flexcell International Corporation, Hillsborough, N.C.) at a density of 3.25×10^6 cells per well. Plating medium consisted of DMEM supplemented with 10% heat-inactivated horse serum (Gibco) and (in mM) 2 glutamine, 25 glucose, and 26 bicarbonate. The cultures were maintained at 37° C. in a humidified 5% CO2 atmosphere. After 3 days in vitro, growth of non-neuronal cells was halted by a 48 h exposure to 10 μM FDU-solution (5 μM uridine, 5 μM (+)-5-fluor-2′-deoxyuridine). This produces cultures in which >85% of the cells are neurons, based on immunohistochemical staining for glial fibrillary associated protein (exclusive to astrocytes), and for the NMDAR1 subunit (not shown). The cultures were used for experiments after 12-14 days in vitro.
The cultures, grown on silastic membranes as above, were placed in the Flexercell® FX-3000™ Strain Unit (Flexcell Int., Inc.), a computer-driven instrument that uses a vacuum pulse to deform the culture substrate. In all experiments, the cortical cultures were stretched to 130% of their original length for 1 s, inducing a sublethal injury as recently characterized by us (Arundine et al., 2003). The stretched neurons maintained cell membrane integrity, viability, and electrophysiological function.
Cell death was determined by serial quantitative measurements of propidium iodide (PI) fluorescence using a multiwell plate fluorescence scanner (Cytofluor II, PerSeptive Biosytems, Framingham, Mass., USA) as described previously (Sattler et al., 1997; Sattler et al., 1998). In brief, the culture medium in each tissue culture well was replaced with control solution containing 50 μg/ml PI, and a baseline fluorescence reading was taken. Sequential readings were then taken at appropriate intervals over the 20 h observation period. The fraction of dead cells in each culture at a given time was calculated as: Fraction dead=(Ft−Fo)/FNMDA Where Ft=PI fluorescence at time t, F0=initial PI fluorescence at time zero and FNMDA=background subtracted PI fluorescence of identical cultures from the same dissection and plating, 20-24 h after a 60 min exposure to 1 mM NMDA at 37° C. Based on manual observations at the time of validation of this technique, this NMDA exposure routinely produced near complete neuronal death in each culture but had no effect on surrounding glia (also see (Bruno et al., 1994; David et al., 1996; Sattler et al., 1997)). Adding Triton X-100 (0.1%) to cultures treated in this manner produced an additional 10-15% increase in PI fluorescence due to permeabilization of non-neuronal cell membranes, consistent with a 10-15% glial component in the cultures.
All experiments were performed at 37° C. Unless otherwise indicated, all solutions contained nimodipine (2 μM) and CNQX (10 μM) to restrict the actions of applied NMDA to NMDARs by preventing the secondary activation of other pathways (Sattler et al., 1998). In general, the cultures were washed ×2 with control solution and immediately stretched to 130% of their original length for 1 s. After the stretch, they were washed ×1 with control solution alone or challenged with an additional treatment (e.g., NMDA) and placed at 37° C. for 1 h. They were then washed ×1 with control solution and then with control solution containing 50 μg/ml PI to obtain a baseline reading. In pilot studies, baseline readings obtained at this stage were similar to those obtained by staining the cells with PI prior to stretch. As the stretch causes splashing of the bath solution, staining with PI after stretch reduced biohazard potential and artifacts associated with PI outside the culture well. Unstretched controls were manipulated identically to stretched cultures.

[3] = system: cultured cortical neurons; experiment: NMDA excitotoxicity in cultured cortical neurons (propidium iodide fluorescence); format: cell-based, mouse
[4] = Physiological variables in pre-treatment MCAO study; format: in vivo, Sprague-Dawley rats
Protocol: Next, I examined whether pretreatment with Tat-peptides would reduce stroke damage. Experiments were carried out in adult male Sprague-Dawley rats subjected to transient middle cerebral artery occlusion (MCAO) for 90 minutes by the intraluminal suture method (36,37). Animals were fasted overnight and injected with atropine sulfate (0.5 mg/kg IP). After 10 minutes anesthesia was induced with 3.5% halothane in a mixture of nitrous oxide and oxygen (Vol. 2:1) and maintained with 0.8% halothane. Rats were orally intubated, mechanically ventilated, and paralyzed with pancuronium bromide (0.6 mg/kg IV). Body temperature was maintained at 36.5-37.5° C. with a heating lamp. Polyethylene catheters in the femoral artery and vein were used to continuously record blood pressure and to sample blood for gas and pH measurements. […] This produces an extensive infarction encompassing the cerebral cortex and basal ganglia. […] Physiological parameters (body temperature, blood pressure, blood gases) were monitored and maintained throughout the experiment (Table 1). All experimental manipulations and analyses of data were performed by individuals blinded to the treatment groups. The extent of cerebral infarction was measured 24 h after MCAO onset (FIG. 7C inset). The postural reflex test (38), and the forelimb placing test (39) were used to grade neurological function on a scale of 0 to 12 (normal=0; worst=12) during MCAO (at 50 minutes) and 24 h thereafter.

[5] = system: transient unilateral middle cerebral artery occlusion; conditions: MCAO 90 min
[6] = Physiological variables in post-treatment MCAO study; format: in vivo, Sprague-Dawley rats
Protocol: Next, I examined whether treatment with Tat-NR2B9c could attenuate ischemic neuronal damage in-vivo when given after stroke onset. […] Infarction volume and neurological outcome measurements were performed at times identical to the pre-treatment study. Body temperature, blood pressure and blood gases were monitored throughout the 24 h experiment and maintained equivalent between groups (Table 2).

For `COC(=O)[C@@H](N)CCCNC(=N)N[N+](=O)[O-]` [L-NAME, N^G-nitro-L-arginine methyl ester], the “DNA laddering after stretch followed by NMDA” value [1] was “virtually abolished”, the “TUNEL staining after stretch followed by NMDA” value [1] was “virtually abolished” and the “enhanced vulnerability of stretched neurons to NMDA” value ([2]; 100 μM, 30 min preincubation) was “completely eliminated the enhanced vulnerability”. For the same molecule, the “toxicity of 30 μM NMDA in unstretched neurons” value ([2]; 100 μM, 30 min preincubation) was “reduced the toxicity” and the “protection against NMDA toxicity” value ([3]; cultured cortical neurons) was “protected”.

With `CC(C)[C@H](NC(=O)OCc1ccccc1)C(=O)N[C@H](C=O)Cc1ccccc1` [Calpain inhibitor III, z-val-phe-CHO] (Cbz-Val-Phe-aldehyde) the “heightened vulnerability of stretched neurons to NMDA” value ([2]; 10 μM) was “not reduced”, the “toxic effects in control or stretched cultures” value ([2]; 10 μM) was “no toxic effects” and the “protection of cells challenged with 30 μM or 1 mM NMDA” value ([2]; 10 μM, whether or not stretched) was “slightly protected”.

With “YGRKKRRQRRRKLSSIEADA [Tat-NR2B-AA, reference compound]” the “toxic effects in control or stretched cultures” value ([2]; 50 nM) was “no toxic effects”, the “Body Temperature” value ([4]; After MCAo (15 min)) was 36.8 ± 0.08 °C and the “Body Temperature” value ([4]; After MCAo (24 hr)) was 37.0 ± 0.25 °C. For the same molecule, the Body weight ([4]; After MCAo (24 hr)) was 244 ± 6 g, the “Body Temperature” value ([4]; Before MCAo(15 min)) was 36.6 ± 0.15 °C and the MABP ([4]; Before MCAo(15 min)) was 115 ± 5 mmHg. The “Blood gases PCO2” value ([4]; Before MCAo(30 min)) was 39.1 ± 1.4 mmHg, the “Blood gases PH” value ([4]; Before MCAo(30 min)) was 7.44 ± 0.02 and the “Blood gases PO2” value ([4]; Before MCAo(30 min)) was 110 ± 7 mmHg. For the same molecule, the “Body Temperature” value ([4]; Before MCAo(30 min)) was 36.5 ± 0.12 °C, the MABP ([4]; Before MCAo(30 min)) was 110 ± 4 mmHg and the “Body Temperature” value ([4]; Before MCAo(45 min)) was 36.7 ± 0.17 °C. The MABP ([4]; Before MCAo(45 min)) was 115 ± 5 mmHg, the Body weight ([4]; Before anesthesia) was 273 ± 7 g and the “Blood gases PCO2” value ([4]; During MCAo (5 min)) was 39.6 ± 0.5 mmHg. The “Blood gases PH” value ([4]; During MCAo (5 min)) was 7.44 ± 0.02, the “Blood gases PO2” value ([4]; During MCAo (5 min)) was 109 ± 4 mmHg and the “Body Temperature” value ([4]; During MCAo (5 min)) was 36.6 ± 0.17 °C. For the same molecule, the MABP ([4]; During MCAo (5 min)) was 135 ± 7 mmHg, the “Body Temperature” value ([4]; During MCAo (15 min)) was 36.7 ± 0.15 °C and the MABP ([4]; During MCAo (15 min)) was 111 ± 6 mmHg. For the same molecule, the “Mean (SE) core temperature during surgery” value [5] was 37.2 (∀0.2), the “Mean (SE) core temperature subsequent to surgery” value [5] was 37.3 (∀0.1) and the “Mean (SE) systolic blood pressure during surgery” value [5] was 109 (∀5.9). The “Mean (SE) systolic blood pressure prior to surgery” value [5] was 113 (∀8.8), the “Mean (SE) systolic blood pressure subsequent to surgery” value [5] was 115 (∀5.9) and the “Mean (SE) core temperature prior to surgery” value ([5]; drug i.v. 3 hours after onset of ischemia) was 36.9 (∀0.1). The “Body Temperature” value ([6]; After MCAo (15 min)) was 36.9 ± 0.23 °C, the MABP ([6]; After MCAo (15 min)) was 116 ± 4 mmHg and the “Body Temperature” value ([6]; After MCAo (24 hr)) was 36.7 ± 0.27 °C. For the same molecule, the Body weight ([6]; After MCAo (24 hr)) was 276 ± 6 g, the “Blood gases PCO2” value ([6]; Before MCAo(15 min)) was 37.9 ± 1.1 mmHg and the “Blood gases PH” value ([6]; Before MCAo(15 min)) was 7.45 ± 0.01. For the same molecule, the “Blood gases PO2” value ([6]; Before MCAo(15 min)) was 113 ± 4 mmHg, the “Body Temperature” value ([6]; Before MCAo(15 min)) was 36.7 ± 0.07 °C and the MABP ([6]; Before MCAo(15 min)) was 103 ± 6 mmHg. The Body weight ([6]; Before anesthesia) was 301 ± 5 g, the “Blood gases PCO2” value ([6]; During MCAo (15 min)) was 48.0 ± 1.2 mmHg and the “Blood gases PH” value ([6]; During MCAo (15 min)) was 7.46 ± 0.01. The “Blood gases PO2” value ([6]; During MCAo (15 min)) was 108 ± 2 mmHg, the “Body Temperature” value ([6]; During MCAo (15 min)) was 36.7 ± 0.11 °C and the MABP ([6]; During MCAo (15 min)) was 121 ± 5 mmHg. For the same molecule, the “Body Temperature” value ([6]; During MCAo (60 min)) was 37.0 ± 0.31 °C, the MABP ([6]; During MCAo (60 min)) was 149 ± 4 mmHg and the “Body Temperature” value ([6]; During MCAo (65 min)) was 37.0 ± 0.29 °C. For the same molecule, the MABP ([6]; During MCAo (65 min)) was 136 ± 5 mmHg.

B1: pTat-GK: Tat fusion protein containing residues 534-724 of PSD-95, guanylate-kinase homology domain; control (protein)
chain: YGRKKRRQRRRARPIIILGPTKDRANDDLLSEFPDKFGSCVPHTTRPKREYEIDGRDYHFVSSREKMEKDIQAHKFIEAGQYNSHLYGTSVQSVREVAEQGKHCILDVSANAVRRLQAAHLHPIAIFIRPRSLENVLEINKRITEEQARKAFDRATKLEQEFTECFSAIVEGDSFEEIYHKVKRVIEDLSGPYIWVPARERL
modifications: left off: small tags and cut ends
notes: Tat fusion protein containing residues 534-724 of PSD-95, guanylate-kinase homology domain; control
With B1 the “enhanced cell mortality in stretched neurons by NMDA challenge, post-treatment” value ([2]; 50 nM applied after terminating the 1 h NMDA challenge) was “ineffective” and the “NMDA-evoked cell death, pre-treatment” value ([3]; 50 nM for 1 h, then NMDA 0-100 μM 1 h, 20 h observation) was “had no effect”.
